Measurements taken from paper PMC11352258, “The Influence of Betulin and Its Derivatives on Selected Colorectal Cancer Cell Lines’ Viability and Their Antioxidant Systems” (Cells, 2024).
pIC50: −log10 of the molar value.

What was measured:
[1] = test system: CAT gene expression in RKO cells; assay: CAT mRNA, real-time RT-qPCR, RKO; format: cell-based; settings: 10 µg/mL, 24 h
Protocol: (§1) In addition, two colorectal cancer cell lines, RKO and SW1116, were distinguished based on a different response to the EB5 derivative. To perform subsequent analyses, the selected CRC lines were treated with EB5 derivative at a concentration of 10 µg/mL for 24 h. Untreated cells were used as a negative control. Three biological replicates were performed.
(§2) Total RNA from treated cells was extracted using TRIzol reagent (Sigma-Aldrich, St Louis, MO, USA) according to the manufacturer’s instructions. The obtained RNA was assessed qualitatively and quantitatively by agarose gel electrophoresis and by spectrophotometric measurement using MaestroNano MN-913 (MaestroGen Inc., Las Vegas, NV, USA), respectively. The obtained extracts provided the starting material for the assessment of genes changes at the mRNA level.
(§3) Changes in the expression of SOD1, SOD2, CAT and GPX3 genes involved in antioxidant systems were assessed by real-time RT-qPCR using a LightCycler® 480 System apparatus (Roche, Basel, Switzerland). A commercially purchased GoTaq® 1-Step RT-qPCR System (Promega, Madison, WI, USA) was used, while the primers and reaction conditions were the same as in the previous study performed by Kruszniewska-Rajs et al.. GAPDH was used as the reference gene. The mRNA expression level studied genes were then determined by the 2^−ΔCt relative quantification method. All samples were tested in triplicate. The specificity of the reaction was evaluated based on the melting temperature curve, as well as using electrophoresis of the amplification products in a 2% agarose gel.

[2] = test system: catalase (CAT) activity in RKO cells; assay: CAT activity in RKO cells; format: cell-based; settings: 10 µg/mL, 24 h
Protocol: as §1
(§4) To examine the antioxidant capacity of the cells as well as lipid peroxidation and to evaluate the activity of antioxidant enzymes, the cells were suspended in lysis buffer (containing 4 mg of […]™ Protease Inhibitor Cocktail and 10 µL of Phosphatase Inhibitor Cocktail 3 in 1 mL of PBS; Sigma-Aldrich, St Louis, MO, USA). Subsequently, the cells were placed in liquid nitrogen for 30 min, followed by storage at −80 °C until further analysis.
Superoxide dismutase (SOD), glutathione peroxidase (GPx) and catalase (CAT) activities were assessed using a commercially purchased Cayman Chemicals Superoxide Dismutase Assay Kit, a Cayman Chemicals Glutathione Peroxidase Assay Kit and a Catalase Assay Kit (Cayman Chemicals, Ann Arbor, MI, USA), respectively, according to the manufacturer’s recommendations and based on a previous study. […] The level of change in absorbance was measured spectrophotometrically at the appropriate wavelength for the assay, i.e., for SOD in the range 440–460 nm, for GPx at 340 nm and for CAT at 540 nm.

HCT116 cells = assay: MTT cytotoxicity assay, HCT116; format: cell-based; settings: HCT 116, MTT, 24 h
Text: (§5) Control cells were not treated with the compounds.

RKO cells [3] = assay: Lipid peroxidation, MDA assay, RKO; format: cell-based; settings: 10 µg/mL, 24 h
Protocol: (§6) In addition, two colorectal cancer cell lines, RKO and SW1116, were distinguished based on a different response to the EB5 derivative. […] Untreated cells were used as a negative control. Three biological replicates were performed. To examine the antioxidant capacity of the cells as well as lipid peroxidation and to evaluate the activity of antioxidant enzymes, the cells were suspended in lysis buffer (containing 4 mg of […]™ Protease Inhibitor Cocktail and 10 µL of Phosphatase Inhibitor Cocktail 3 in 1 mL of PBS; Sigma-Aldrich, St Louis, MO, USA). Subsequently, the cells were placed in liquid nitrogen for 30 min, followed by storage at −80 °C until further analysis. To assess the level of lipid peroxidation, the Malondialdehyde Assay Kit (Aoxre BioSciences, Burlingame, CA, USA) was used, according to the manufacturer’s recommendations.

[4] = test system: catalase (CAT) activity in SW1116 cells; assay: CAT activity in SW1116 cells; format: cell-based; settings: SW1116, 10 µg/mL, 24 h
Protocol: as §1, §4
Superoxide dismutase (SOD), glutathione peroxidase (GPx) and catalase (CAT) activities were assessed using a commercially purchased Cayman Chemicals Superoxide Dismutase Assay Kit, a Cayman Chemicals Glutathione Peroxidase Assay Kit and a Catalase Assay Kit (Cayman Chemicals, Ann Arbor, MI, USA), respectively, according to the manufacturer’s recommendations and based on a previous study. The cell supernatant from previously prepared cell lysates of the tested lines provided material for further analyses. The level of change in absorbance was measured spectrophotometrically at the appropriate wavelength for the assay, i.e., for SOD in the range 440–460 nm, for GPx at 340 nm and for CAT at 540 nm.

DLD-1 cells = assay: MTT cytotoxicity assay, DLD-1; format: cell-based; settings: DLD-1, MTT, 24 h
Text: as §5

RKO cells [5] = assay: Total antioxidant capacity (ABTS+), RKO; format: cell-based; settings: 10 µg/mL, 24 h
Protocol: as §1, §4
The ABTS+ radical cation was used to assess the total antioxidant capacity (TAC) of the tested cells. The principle of the method is based on the reduction of the formed blue-green chromophore ABTS+ as a result of the reaction of ABTS (Sigma-Aldrich, St Louis, MO, USA) with potassium persulphate (Sigma-Aldrich, St Louis, MO, USA). The degree of decolorization of the ABTS+ radical cation depends on the antioxidant activity of the cells and is determined as a function of concentration and time in relation to Trolox reactivity (TEAC-Trolox equivalent antioxidant capacity).

SW1116 cells [6] = assay: Lipid peroxidation, MDA assay, SW1116; format: cell-based; settings: SW1116, 10 µg/mL, 24 h
Protocol: as §6

HT29 cells = assay: MTT cytotoxicity assay, HT29; format: cell-based; settings: HT29, MTT, 24 h
Text: as §5

CCD-841CoN cells = assay: in vitro; format: cell-based; settings: CCD-841CoN normal cells, MTT, 24 h
Text: as §5

SW1116 cells [7] = assay: MTT cytotoxicity assay, SW1116; settings: SW1116, MTT, 24 h
Protocol: (§7) Six colorectal cancer cell lines, RKO, HT29, DLD-1, HCT116, Caco2 and SW1116 (CRL-2577, HTB-38, CCL-221, CCL-247, HTB-37, CCL-233; ATCC, Manassas, VA, USA, respectively, for CRC lines), and one normal cell line, CCD-841CoN (CRL-1790, ATCC, USA), were routinely cultured at 37 °C in a 5% CO2 incubator (Direct Heat CO2; Thermo Scientific, Waltham, MA, USA) in cell line-appropriate culture medium according to the manufacturer’s recommendations. Eagle’s minimum essential medium (EMEM) was used to culture RKO, Caco2 and CCD-841CoN lines, while McCoy’s 5A medium was used for HT29 and HCT116 lines. DLD-1 cells were grown in RPMI-1640 medium, whereas SW1116 cells were maintained in Leibovitz’s L-15 medium. All culture media were supplemented with 10% fetal bovine serum (EuroClone, Milan, Italy), and gentamycin at the concentration […] (BioWhittaker, Lonza, Basel, Switzerland) was also applied to prevent culture contamination.
(§8) For this purpose, cells were exposed to the test compound for 24 h at concentrations of 0.1, 1, 10, 20, 50 and 100 μg/mL. Control cells were not treated with the compounds. MTT (0.25 mg/mL) was then added to the cultures and incubated for 3 h at 37 °C. After a time, the cells were washed with phosphate buffered saline (PBS), and next, formazan dye was dissolved in 100 μL of dimethyl sulfoxide (Sigma-Aldrich, St Louis, MO, USA). Absorbance was measured at 540 nm using a Wallac 1420 VICTOR microplate reader (PerkinElmer, Waltham, MA, USA).

[8] = test system: SOD2 gene expression in RKO cells; assay: SOD2 mRNA, real-time RT-qPCR, RKO; format: cell-based; settings: 10 µg/mL, 24 h
Protocol: as §1, §2, §3

[9] = test system: CAT gene expression in SW1116 cells; assay: CAT mRNA, real-time RT-qPCR, SW1116; format: cell-based; settings: SW1116, 10 µg/mL, 24 h
Protocol: as §1, §2, §3

[10] = test system: SOD1 gene expression in RKO cells; assay: SOD1 mRNA, real-time RT-qPCR, RKO; format: cell-based; settings: 10 µg/mL, 24 h
Protocol: as §1, §2, §3

RKO cells [11] = assay: MTT cytotoxicity assay, RKO
Protocol: as §7, §8

With `N.N.[Cl][Pt][Cl]` [Cisplatin, cisplatin] the “CAT gene expression vs. 5FU” value [1] was “significant increase in expression”, the “CAT activity compared to the betulin-treated cells” value [2] was “slight decrease” and the IC50 value (HCT116 cells) was 3.02 µg/mL. The pIC50 (HCT116 cells; read-out: IC50 value) was 5.00, the “MDA level compared to the control group” value (RKO cells [3]) was “did not cause changes” and the “catalase activity compared to cells treated with EB5” value [4] was “higher catalase activity”. The “catalase activity compared to cells treated with betulin” value [4] was “higher catalase activity”, the “catalase activity compared to the control” value [4] was “higher catalase activity” and the IC50 value (DLD-1 cells) was 27.72 µg/mL. The pIC50 (DLD-1 cells; read-out: IC50 value) was 4.03, the “reduction in TAC compared to the control cells” value (RKO cells [5]) was “about 23.6%” and the “MDA level compared to 5FU-treated cells” value (SW1116 cells [6]) was “higher level of MDA”. For the same molecule, the “MDA level compared to betulin-treated cells” value (SW1116 cells [6]) was “higher level of MDA”, the “MDA level compared to the control” value (SW1116 cells [6]) was “higher level of MDA” and the IC50 value (HT29 cells) was >100 µg/mL. The pIC50 (HT29 cells; read-out: IC50 value) was < 3.48, the IC50 value (CCD-841CoN cells) was 27.59 µg/mL and the pIC50 (CCD-841CoN cells; read-out: IC50 value) was 4.04. The IC50 value (SW1116 cells [7]) was >100 µg/mL, the pIC50 (SW1116 cells [7]; read-out: IC50 value) was < 3.48 and the “SOD2 gene expression vs. 5FU-treated cells” value [8] was “higher expression”. The “SOD2 gene expression vs. untreated cells” value [8] was “statistically significant increase in SOD2 gene expression”, the “CAT gene expression vs. 5FU” value [9] was “difference in the expression” and the “SOD1 gene expression vs. 5FU-treated cells” value [10] was “statistically significant increase in expression”. For the same molecule, the “SOD1 gene expression vs. non-treated cells” value [10] was “statistically significant increase in expression”, the IC50 value (RKO cells [11]; MTT, 24 h) was 6.35 µg/mL and the pIC50 (RKO cells [11]; read-out: IC50 value, MTT, 24 h) was 4.67.
